In patent US20070264349A1, “Nano-structured compositions and methods of making and using the same” (Novavax, Inc., priority 2006, published 2007):
One block for each compound: values may come before it.

Key:
[1] = cited from earlier work
[2] = Particle size measurement (Coulter particle sizer LS230); type: physicochemical; conditions: for mean size of nanoemulsion droplets comprising the active ingredient: after high-pressure homogenization, 10,000 psi (Examples 1, 2, 4); for mean particle size of raw active ingredient: before particle size reduction; for particle size of a significant portion / almost all of the particles: formulations comprising ethanol (Tables 5 and 6), FIG. 10, FIG. 11
Description: A Coulter particle sizer LS230 was used to measure particle size.

[3] = after high-pressure homogenization (Examples 1, 4, 7)
[4] = after high-pressure homogenization, 10,000 psi (Examples 5, 6, 7)

mean size of nanoemulsion droplets comprising the active ingredient [2]: about 93 nm
mean particle size of raw active ingredient [2]: about 542 microns
Compound: C[C@]12CC[C@@H]3c4ccc(O)cc4CC[C@H]3[C@@H]1CC[C@@H]2O [estradiol, estra-1,3,5(10)-triene-3,17β-diol]

size below which 100% of the particles lie [2, 3]: below 10 microns
milled mean particle size [2, 4]: 2.79 microns
mean particle size of raw active ingredient [2]: 15-30 μm
Compound: O=C(c1ccc(OCCN2CCCCC2)cc1)c1c(-c2ccc(O)cc2)sc2cc(O)ccc12 [raloxifene]
solubility in water [1]: very slightly soluble

The next lines start with the compound.

Compound: CN1CCCC1c1cccnc1 (stereo not drawn) [Nicotine, S-3-(1-methyl-2-pyrrolidinyl) pyridine]
solubility in water [1]: freely water-soluble

Compound: Nc1nc2c(ncn2COCCO)c(=O)[nH]1 [acyclovir, 2-amino-1,9-dihydro-9-[(2-hydroxyethoxy)methyl]-6H-purin-6-one]
size below which 100% of the particles lie [2, 3]: less than 3 microns
mean size of nanoemulsion droplets comprising the active ingredient [2]: 132 nm
milled mean particle size [2, 4]: about 2 microns
size below which 100% of the particles lie ([2]; after particle size reduction (FIG. 2, FIG. 4)): less than 3 μm
particle size of a significant portion of the particles ([2]; formulation comprising N-methyl-pyrrolidinone (Table 4), FIG. 9, bimodal): less than 0.4 microns
particle size of a significant portion / almost all of the particles [2]: less than 0.1 microns
mean particle size of raw active ingredient [2]: 54 μm
solubility in water [1]: moderately soluble

Compound: NCCCC(O)(P(=O)(O)O)P(=O)(O)O [alendronic acid]
milled mean particle size ([2]; after high-pressure homogenization, 10,000 psi (Example 3)): about 0.2 μm
mean particle size of raw active ingredient [2]: 190-210 μm

Compound: [R—[R*,R*-(E)]]-cyclic(L-alanyl-D-alanyl-N-methyl-L-leucyl-N-methyl-L-leucyl-N-methyl-L-valyl-3-hydroxy-N, 4-dimethyl-L-2-amino-6-octenoyl-L-α-amino-butyryl-N-methylglycyl-N-methyl-L-leucyl-L-valyl-N-methyl-L-leucyl) [cyclosporine]
particle size of a significant portion / almost all of the particles [2]: less than 1 microns
